Measurements reported in patent US20050089524A1, “Compositions and compounds for use as molecular adjuvant for a nicotine vaccine” (priority 2002, published 2005).
Square brackets hold non-standard residues; d marks the D form. Ends that are not written are not given here. Peptide text beside a SMILES is read from it.

Legend:
[1] = test system: human umbilical artery; test: Smooth muscle contraction of human umbilical artery; format: cell-based; details: for EC50: concentration resulting in 50% maximum contraction; for pD2 ± SE: −log EC50 (M), mean ± SE, n 3
Procedure: (§1) Pharmacologic assays. […] Statistical analysis of the values obtained from pharmacologic assays was performed using one-way analysis of variance (ANOVA).

[2] = test system: human PMNs; test: MPO release from human PMNs; format: cell-based; details: for EC50: concentration resulting in 50% maximum release of myeloperoxidase; for pD2 ± SE: −log EC50 (M), mean ± SE, n 3
Procedure: as §1

[3] = target: T1, C5aR (Homo sapiens, UniProt P21730); test: Binding affinity for C5aRs on human PMNs (125I-C5a competition)
T1 construct: endogenous in cells; host or cells: intact human PMNs (polymorphonuclear leukocytes)
T1 sequence (P21730 1-350): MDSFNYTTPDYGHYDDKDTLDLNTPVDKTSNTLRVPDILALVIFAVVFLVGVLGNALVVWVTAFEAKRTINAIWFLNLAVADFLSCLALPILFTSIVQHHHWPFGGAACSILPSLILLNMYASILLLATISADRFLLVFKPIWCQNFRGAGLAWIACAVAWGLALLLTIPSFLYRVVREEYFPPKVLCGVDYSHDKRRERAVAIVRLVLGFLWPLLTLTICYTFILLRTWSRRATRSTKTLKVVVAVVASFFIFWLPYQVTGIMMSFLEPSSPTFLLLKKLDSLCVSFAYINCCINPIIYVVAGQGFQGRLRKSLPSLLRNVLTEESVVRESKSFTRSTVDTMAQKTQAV
Procedure: Pharmacologic assays. C5a-like agonistic activity was assessed by the ability of the peptides to induce smooth muscle contraction of human umbilical artery and […] from human PMNs according to previously published methods (Sanderson et al., 1994, supra; Sanderson et al., J. Med. Chem. 38, 3669, 1995; Finch et al., J. Med. Chem. 40, 877, 1997). Full concentration-response curves were generated for individual peptides and natural C5a in each assay and the EC50 values (the concentration of peptide producing 50% of the maximal response to each peptide) were calculated. pD2 transforms [−log EC50 (M)] were calculated for each concentration-response curve and reported as the mean±SE. Peptide binding affinity to the C5aR was evaluated on intact human PMNs by a competition assay using ^125I-C5a according to previously described methods (Sanderson et al., 1995, supra; Finch et al., 1997, supra). Statistical analysis of the values obtained from pharmacologic assays was performed using one-way analysis of variance (ANOVA).

[4] = test system: 51Cr-labeled P815S (HBsAg transfectant) target cells; test: HBsAg-specific CTL response of immunized mice (51Cr-release assay); format: in vivo, BALB/c mice; details: for antigen-specific CTL response: three s.c. injections of 50 μg at 21 day intervals, no added adjuvant; for % Specific Lysis: s.c. in PBS, boost day 21, spleen cells day 42
[5] = test system: MUC1 peptide; test: MUC1-specific antibody isotype titers in immunized mice (ELISA); format: in vivo; details: for MUC1 specific Ab titer, IgA / MUC1 specific Ab titer, IgG1 / MUC1 specific Ab titer, IgG2a / MUC1 specific Ab titer, IgG2b / MUC1 specific Ab titer, IgG3 / MUC1 specific Ab titer, IgM: five C57BL6 mice, mean titer of responders, sera screened against MUC1 peptide
[6] = test system: MUC1 epitope peptide; test: Serum antibody response to MUC1 epitope in immunized mice (RIA); format: in vivo; details: C57Bl6 and Balb/c mice, 100 μg i.p. with RIBI adjuvant, three immunizations, sera at 6 weeks
Text: iii. Animal Models. The strains of mice used for this example were inbred females 6 to 12 week old C57Bl6(H-2^b) and Balb/c (H-2^d), which were obtained from Jackson labs (Bar Harbor, Me.). […] The MUC1 peptide selected for these studies contained a motif that may bind to the H-2K^b molecule of the C57Bl6 mice; therefore, a strain of mouse that lacked this class I molecule binding motif (Balb/c) was also studied to determine the relative contribution of the class I binding motif to the antigen presentation properties of these peptides.
iv. Immunization protocol. Preimmune sera were obtained from mice, which were subsequently immunized intraperitoneally with 100 μg of the indicated peptide with RIBI adjuvant (MPL+TDM+CWS) (Sigma Immunochemicals). Animals were boosted twice at two week intervals using the same injection procedure. Sera were obtained following three immunizations (at 6 weeks).
v. Analysis of serum antibody responses. For radioimmunoassay (RIA), anti-peptide antibodies were determined, before and at different time points after immunization, in 96-well microtiter plates (Dynatech Laboratories, Inc.). Plates were coated with 50 μl of a 100 μg/ml appropriate peptide in phosphate-buffered saline (PBS) pH 7.4 solution overnight at 4° C. The wells were blocked by incubation with 5% dry milk in PBS pH 7.4 for at least two hours. Anti-peptide antibody titers were determined using serial dilutions of sera. The sera were diluted with PBS containing 0.05% Tween-20, pH 7.4 (washing buffer) and 50 μl of each dilution was incubated at 37° C. for 1 hour. The wells were then drained, washed 4 times with PBS-Tween and 50 μl of ^125I-goat anti-mouse Ab (1-2×10^4 cpm/well) was added and incubated for 1 hr at 25° C. After washing, specific radioactivity was recorded in a gamma counter (1272 CliniGamma, LKB).
vi. Experimental groups. […]

Compound | EC50 [1] [µM] | pD2 ± SE [1] | EC50 [2] [µM] | pD2 ± SE [2] | EC50 [3] [µM] | IC50 [3] [µM] | % Specific Lysis ([4]; Effector:Target Ratio 6.25:1) [%] | % Specific Lysis ([4]; Effector:Target Ratio 12.5:1) [%] | % Specific Lysis ([4]; Effector:Target Ratio 25:1) [%] | % Specific Lysis ([4]; Effector:Target Ratio 50:1) [%] | antibody response to MUC1 epitope (RIA) [6] | further results
CC[C@H](C)[C@H](NC(=O)[C@H](CCCNC(=N)N)NC(=O)[C@H](CCCNC(=N)N)NC(=O)[C@H](CCCNC(=N)N)NC(=O)[C@@H](C)NC(=O)[C@H](CC(C)C)NC(=O)[C@@H]1CCCN1C(=O)[C@H](CCSC)NC(=O)[C@@H]1CCCN1C(=O)[C@H](CCCCN)NC(=O)[C@H](Cc1ccccc1)NC(=O)[C@H](CO)NC(=O)[C@@H](N)Cc1ccc(O)cc1)C(=O)N1CCC[C@H]1C(=O)N[C@@H](CCC(N)=O)C(=O)N[C@@H](CO)C(=O)N[C@@H](CC(C)C)C(=O)N[C@@H](CC(=O)O)C(=O)N[C@@H](CO)C(=O)N[C@@H](Cc1c[nH]c2ccccc12)C(=O)N[C@@H](Cc1c[nH]c2ccccc12)C(=O)N[C@H](C(=O)N[C@@H](CO)C(=O)N[C@@H](CC(C)C)C(=O)O)[C@@H](C)O (H-YSFKPMPL[dA]RRRIPQSLDSWWTSL-OH; N-terminus and C-terminus assumed) | 39.4 | 4.41 ± 0.06 | > 1000 | >3 | 465 | 468 | – | – | – | – | – | –
CC[C@H](C)[C@H](N)C(=O)N1CCC[C@H]1C(=O)N[C@@H](CCC(N)=O)C(=O)N[C@@H](CO)C(=O)N[C@@H](CC(C)C)C(=O)N[C@@H](CC(=O)O)C(=O)N[C@@H](CO)C(=O)N[C@@H](Cc1c[nH]c2ccccc12)C(=O)N[C@@H](Cc1c[nH]c2ccccc12)C(=O)N[C@H](C(=O)N[C@@H](CO)C(=O)N[C@@H](CC(C)C)C(=O)N[C@@H](CCCNC(=N)N)C(=O)N[C@@H](CCCNC(=N)N)C(=O)N[C@@H](Cc1ccc(O)cc1)C(=O)N[C@@H](CO)C(=O)N[C@@H](Cc1ccccc1)C(=O)N[C@@H](CCCCN)C(=O)N1CCC[C@H]1C(=O)N[C@@H](CCSC)C(=O)N1CCC[C@H]1C(=O)N[C@@H](CC(C)C)C(=O)N[C@H](C)C(=O)N[C@@H](CCCNC(=N)N)C(=O)NCC(=O)O)[C@@H](C)O (H-IPQSLDSWWTSLRRYSFKPMPL[dA]RG-OH; N-terminus and C-terminus assumed) | 6.78 | 5.17 ± 0.13 | 2.56 | 5.59 ± 0.28 | 17 | 17 | – | – | – | – | – | –
CC[C@H](C)[C@H](N)C(=O)N1CCC[C@H]1C(=O)N[C@@H](CCC(N)=O)C(=O)N[C@@H](CO)C(=O)N[C@@H](CC(C)C)C(=O)N[C@@H](CC(=O)O)C(=O)N[C@@H](CO)C(=O)N[C@@H](Cc1c[nH]c2ccccc12)C(=O)N[C@@H](Cc1c[nH]c2ccccc12)C(=O)N[C@H](C(=O)N[C@@H](CO)C(=O)N[C@@H](CC(C)C)C(=O)N[C@@H](CCCNC(=N)N)C(=O)N[C@H](C(=O)N[C@@H](CCCNC(=N)N)C(=O)N[C@@H](CCCNC(=N)N)C(=O)N[C@@H](Cc1ccc(O)cc1)C(=O)N[C@@H](CO)C(=O)N[C@@H](Cc1ccccc1)C(=O)N[C@@H](CCCCN)C(=O)N1CCC[C@H]1C(=O)N[C@@H](CCSC)C(=O)N1CCC[C@H]1C(=O)N[C@@H](CC(C)C)C(=O)N[C@H](C)C(=O)N[C@@H](CCCNC(=N)N)C(=O)O)C(C)C)[C@@H](C)O (H-IPQSLDSWWTSLRVRRYSFKPMPL[dA]R-OH; N-terminus assumed) | 0.18 | 6.67 ± 0.22 | 2.15 | 5.61 ± 0.19 | 0.529 | 0.525 | – | – | – | – | – | antigen-specific CTL response [4]: able to elicit a specific CTL response that was significantly above background levels
CC[C@H](C)[C@H](N)C(=O)N1CCC[C@H]1C(=O)N[C@@H](CCC(N)=O)C(=O)N[C@@H](CO)C(=O)N[C@@H](CC(C)C)C(=O)N[C@@H](CC(=O)O)C(=O)N[C@@H](CO)C(=O)N[C@@H](Cc1c[nH]c2ccccc12)C(=O)N[C@@H](Cc1c[nH]c2ccccc12)C(=O)N[C@H](C(=O)N[C@@H](CO)C(=O)N[C@@H](CC(C)C)C(=O)N[C@@H](Cc1ccc(O)cc1)C(=O)N[C@@H](CO)C(=O)N[C@@H](Cc1ccccc1)C(=O)N[C@@H](CCCCN)C(=O)N1CCC[C@H]1C(=O)N[C@@H](CCSC)C(=O)N1CCC[C@H]1C(=O)N[C@@H](CC(C)C)C(=O)N[C@H](C)C(=O)N[C@@H](CCCNC(=N)N)C(=O)O)[C@@H](C)O (H-IPQSLDSWWTSLYSFKPMPL[dA]R-OH; N-terminus assumed) | 0.21 | 6.68 ± 0.17 | 1.58 | 5.80 ± 0.04 | 3.69 | 3.72 | 1 | 2 | 4 | 6 | – | antigen-specific CTL response [4]: lack of a CTL response
YKQGGFLGLYSFKPMPLaR [peptide 3] | – | – | – | – | – | – | – | – | – | – | substantial responses were produced | MUC1 specific Ab titer, IgA [5]: 0; MUC1 specific Ab titer, IgG1 [5]: 0; MUC1 specific Ab titer, IgG2a [5]: 1260; MUC1 specific Ab titer, IgG2b [5]: 1780 (5/5); MUC1 specific Ab titer, IgG3 [5]: 0 (5/5); MUC1 specific Ab titer, IgM [5]: 6310 (5/5); isotypes of the anti-peptide antibodies produced ([5]; immunized mice, FIG. 3): IgM, IgG2a, and IgG2b; specificity of the antibody response for the MUC1 epitope ([5]; immunized mice, FIG. 4): includes a high percentage of antibodies that are specific for the MUC1 epitope
YKQGGFLGL [peptide 1] | – | – | – | – | – | – | – | – | – | – | no appreciable increase in antibody response | –
YKQGGFLGL-KLH: MUC1 epitope conjugated to keyhole limpet hemocyanine (KLH) (also: conjugated to KLH) [reference compound] | – | – | – | – | – | – | – | – | – | – | – | MUC1 specific Ab titer, IgA [5]: 0; MUC1 specific Ab titer, IgG1 [5]: 100 (2/5); MUC1 specific Ab titer, IgG2a [5]: 0; MUC1 specific Ab titer, IgG2b [5]: 0; MUC1 specific Ab titer, IgG3 [5]: 0; MUC1 specific Ab titer, IgM [5]: 5010 (4/5)
YSFKPMPLaRKQGGFLGL [peptide 4] | – | – | – | – | – | – | – | – | – | – | immune responses were not produced | –
IPQSLDSWWTSL [free L^d MHC class I-restricted HBsAg peptide S28-39] | – | – | – | – | – | – | 3 | 3 | 5 | 7 | – | –
IPQSLDSWWTSLRR | – | – | – | – | – | – | 0 | 1 | 2 | 2 | – | –
